Assay results as given in ChEMBL document CHEMBL1641601, “Design, synthesis, and testing of an 6-O-linked series of benzimidazole based inhibitors of CDK5/p25” (Bioorg Med Chem, 2011).

Molecular target: Cyclin-dependent kinase 5/CDK5 activator 1 (Homo sapiens, UniProt Q00535)
Assay: Inhibition of CDK5/P25 GST-fusion protein assessed as substrate histone H1 phosphorylation by scintillation counting
Format: protein-complex assay

Cyclin-dependent kinase 5/CDK5 activator 1, sequence (Q00535 whole entry, the tested form may be a part): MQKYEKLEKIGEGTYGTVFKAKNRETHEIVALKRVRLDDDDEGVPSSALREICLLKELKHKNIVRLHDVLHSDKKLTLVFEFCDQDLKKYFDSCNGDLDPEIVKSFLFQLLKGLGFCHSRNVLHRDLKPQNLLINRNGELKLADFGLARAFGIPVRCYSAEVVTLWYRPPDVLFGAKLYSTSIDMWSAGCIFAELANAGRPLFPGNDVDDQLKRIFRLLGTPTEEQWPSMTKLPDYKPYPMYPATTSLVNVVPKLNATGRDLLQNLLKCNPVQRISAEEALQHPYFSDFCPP
Cyclin-dependent kinase 5/CDK5 activator 1, sequence (Q15078 whole entry, further chain, the tested form may be a part): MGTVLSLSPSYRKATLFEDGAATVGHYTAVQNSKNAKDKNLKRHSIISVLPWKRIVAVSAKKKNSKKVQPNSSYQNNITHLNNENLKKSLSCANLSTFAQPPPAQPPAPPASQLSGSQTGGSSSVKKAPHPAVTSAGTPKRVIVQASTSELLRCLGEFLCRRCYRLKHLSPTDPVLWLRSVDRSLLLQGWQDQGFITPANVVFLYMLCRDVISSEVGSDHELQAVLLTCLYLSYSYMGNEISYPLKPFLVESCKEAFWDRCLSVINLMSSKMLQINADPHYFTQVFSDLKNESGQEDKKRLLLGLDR

IC50 [µM] | Compound
> 10 | COc1cc(NCc2ccccc2)c2ncn(C(C)C)c2c1
13 | CCC(CO)Oc1cc(NCc2ccccc2)c2ncn(C(C)C)c2c1 (configuration not stated)
> 100 | CCOc1cc(NCc2ccccc2)c2ncn(C(C)C)c2c1
> 100 | CCCOc1cc(NCc2ccccc2)c2ncn(C(C)C)c2c1
> 100 | CCCCOc1cc(NCc2ccccc2)c2ncn(C(C)C)c2c1
> 100 | COCCOc1cc(NCc2ccccc2)c2ncn(C(C)C)c2c1
> 100 | CCC(CN(C)C)Oc1cc(NCc2ccccc2)c2ncn(C(C)C)c2c1 (configuration not stated)
> 100 | CC(C)n1cnc2c(NCc3ccccc3)cc(OCC3CCN(C)CC3)cc21
> 10 | CCC(COC)Oc1cc(NCc2ccccc2)c2ncn(C(C)C)c2c1 (configuration not stated)
> 100 | CC(C)n1cnc2c(NCc3ccccc3)cc(OCCO)cc21
> 100 | CCC(O)COc1cc(NCc2ccccc2)c2ncn(C(C)C)c2c1 (configuration not stated)
> 100 | CC(C)n1cnc2c(NCc3ccccc3)cc(OCC3CCNCC3)cc21
